# Values of other authors as cited in US9096579B2, “Amino-indolyl-substituted imidazolyl-pyrimidines and their use as medicaments” (Boehringer Ingelheim International GmbH, priority 2012, dated 2015).
# Key:
# [1] = tested on: platelet counts in patients with ITP; conditions: single center open label study
# [2] = tested on: atherosclerotic plaque size; conditions: murine model of atherosclerosis
smiles,measurement,setting,value
COc1cc(Nc2ncc(F)c(Nc3ccc4c(n3)N(COP(=O)(O)O)C(=O)C(C)(C)O4)n2)cc(OC)c1OC [R788 (R406)],platelet counts,[1],improved platelet counts
same,atherosclerotic plaque size,[2],reduced atherosclerotic plaque size
